This is an account of results in patent US9938510B2, “Photobacterium sp. alpha-2-6-sialyltransferase variants” (The Regents of the University of California, priority 2014, dated 2018).

Read-outs that look alike come from different tables or passages of the source.

The test system of series [1] is Photobacterium sp. JH-ISH-224 α2-6-sialyltransferase Psp26ST(15-501)-His6, wild type, SEQ ID NO: 23. As to conditions: apparent, donor CMP-Neu5Ac, cited from earlier work.
Series [2] concerns the target Photobacterium sp. JH-ISH-224 α2-6-sialyltransferase Psp2,6ST(15-501)-His6, wild type, SEQ ID NO: 23 (Photobacterium sp. JT-ISH-224, UniProt A8QYL1). Description: Donor hydrolysis kinetics (CMP-Neu5Ac hydrolysis), wild-type Psp2,6ST(15-501)-His6. The settings on record: apparent, 20° C., 10 min, Tris-HCl pH 8.0. It counts as biochemical. The procedure: (§1) Procedure for Kinetic Analysis of Donor Hydrolysis by His6-Pd2,6ST(16-497), Psp26ST(15-501)-His6 and its A235D and A366G Mutants
(§2) The kinetics study for the donor hydrolysis activity of His6-Pd2,6ST(16-497) was carried out at 37° C. for 20 min in Tris-HCl buffer (200 mM, pH 8.0). The kinetics study for the donor hydrolysis activities of Psp26ST(15-501)-His6 and its A235D mutant was carried out at 20° C. for 10 min in Tris-HCl buffer (200 mM, pH 8.0). All reactions were performed in duplicate in a total volume of 10 μL containing varied concentrations of CMP-Neu5Ac (10, 20, 40, 60, 80 and 100 mM) and the enzyme (6 μM). Reactions were stopped by adding 10 μL of ethanol and then centrifuged. The supernatants were analyzed by a P/ACETM capillary electrophoresis (CE) system equipped with a photodiode array (PDA) detector (Beckman Coulter, Inc., Fullerton, Calif.). CE conditions were as follows: 75 μm i.d. capillary, 25 KV/80μÅ, 5 s vacuum injections, monitored at 200 nm and 254 nm, the running buffer used was sodium tetraborate (25 mM, pH 9.4). Apparent kinetic parameters were obtained by fitting the experimental data (the average values of duplicate assay results) into the Michaelis-Menten equation using Grafit 5.0.

The test system of series [3] is Photobacterium sp. JH-ISH-224 α2-6-sialyltransferase Psp26ST(15-501)-His6 A366G mutant, SEQ ID NO: 2. The series can be described thus: Sialyltransferase kinetics, Psp26ST(15-501)-His6 A366G mutant. As to conditions: apparent, varied CMP-Neu5Ac. The class given is biochemical. The procedure:
Reactions were carried out in duplicate at 20° C. for 20 minutes in a total volume of 10 μL in a proper buffer at the optimal pH according to the pH profile of the wild-type enzyme (see, Ding, 2011, supra). When LacβMU was used as an acceptor, the conditions were: Tris-HCl buffer (200 mM, pH 8.0), enzyme (0.3 μM), varied concentrations of LacβMU (0.1, 0.25, 0.4, 1.0, 2.0, 4.0, and 6.0 mM) with a fixed concentration of CMP-Neu5Ac (1.0 mM) or varied concentrations of CMP-Neu5Ac (0.1, 0.25, 0.4, 1.0, 2.0, 4.0, and 6.0 mM) with a fixed concentration of LacβMU (1.0 mM). When GalNAcα2AA was used as an acceptor, the conditions were: NaOAc-HOAc buffer (200 mM, pH 5.0), enzyme (6 μM), varied concentrations of GalNAcα2AA (0.5, 0.8, 1.0, 2.0, 4.0, 8.0, and 10.0 mM) and a fixed concentration of CMP-Neu5Ac (4.0 mM) or varied concentrations of CMP-Neu5Ac (0.5, 1.0, 2.0, 4.0, 5.0, 8.0, and 10.0 mM) with a fixed concentration of GalNAcα2AA (1.0 mM). When GalNAcαSer was used as an acceptor, the conditions were: Tris-HCl buffer (200 mM, pH 8.0), enzyme (0.6 μM), varied concentrations of GalNAcαSer (0.1, 0.25, 0.5, 1.0, 2.0, 4.0, 8.0, and 10.0 mM) and a fixed concentration of CMP-Neu5Ac (2.0 mM). When GalNAcαThr was used as an acceptor, the conditions were: Tris-HCl buffer (200 mM, pH 8.0), enzyme (3.0 μM), varied concentrations of GalNAcαThr (0.5, 1.0, 2.0, 4.0, 10.0, 20.0, 40.0, 60.0 mM) and a fixed concentration of CMP-Neu5Ac (4.0 mM). Results analysis was performed using the HPLC system as described above for sialyltransferase activity assays. Apparent kinetic parameters were obtained by fitting the experimental data (the average values of duplicate assay results) into the Michaelis-Menten equation using Grafit 5.0.

Substrate in series [4]: CC(=O)N[C@H]1[C@H]([C@H](O)[C@H](O)CO)O[C@](OP(=O)(O)OC[C@H]2O[C@@H](n3ccc(N)nc3=O)[C@H](O)[C@@H]2O)(C(=O)O)C[C@@H]1O
The series can be described thus: Donor hydrolysis kinetics (CMP-Neu5Ac hydrolysis), Psp2,6ST(15-501)-His6 A235D mutant. It counts as biochemical, Photobacterium sp. JH-ISH-224. As to conditions: other: apparent, 20° C., 10 min, Tris-HCl pH 8.0. The procedure: as §1, §2

Series [5] can be described thus: Kinetics of CMP-Neu5Ac donor hydrolysis activity (capillary electrophoresis). The class given is biochemical. How it is done: as §1, §2
The nature of series [6]: Sialyltransferase activity assays, statements not tied to one acceptor (LacβMU, GalNAcα2AA, GalNAcαSer, GalNAcαThr). The class given is biochemical. The procedure: When LacβMU was used as an acceptor, the assay was performed in duplicate in 10 μL of Tris-HCl buffer (100 mM, pH 8.0) containing CMP-Neu5Ac (1 mM), LacβMU (1 mM), MgCl2 (20 mM), wild-type Psp2,6ST(15-501)-His6 or its mutant (0.3 μM). When an α-GalNAc-terminated acceptor was used, the assay was performed in duplicate in 10 μL of Tris-HCl buffer (100 mM, pH 8.0 for GalNAcαSer/Thr) or NaOAc-HOAc (100 mM, pH 5.0 for GalNAcα2AA) containing CMP-Neu5Ac (1.5 mM), the acceptor (1 mM), MgCl2 (20 mM), wild-type Psp2,6ST(15-501)-His6 or its mutant (3.0 μM). Reactions were allowed to proceed at 20° C. for 20 min and stopped by adding 10 μL of cold ethanol. The analysis of sialylated product conversion was performed using the HPLC system as described above for sialyltransferase activity assay. The 4-methylumbelliferone (MU)-labeled fluorescent acceptor and the product formed were detected with excitation at 325 nm and emission at 372 nm. The 2-aminobenzoic acid (2AA)-labeled fluorescent acceptors and the products formed were detected with excitation at 315 nm and emission at 400 nm. The 9-fluorenylmethylcarbamate (Fmoc)-labeled fluorescent acceptors and the products formed were detected with excitation at 262 nm and emission at 313 nm.

Substrate in series [7]: CC(=O)N[C@H]1[C@H]([C@H](O)[C@H](O)CO)O[C@](OP(=O)(O)OC[C@H]2O[C@@H](n3ccc(N)nc3=O)[C@H](O)[C@@H]2O)(C(=O)O)C[C@@H]1O
Description: Donor hydrolysis kinetics (CMP-Neu5Ac hydrolysis), His6-Pd2,6ST(16-497). The class given is biochemical, Photobacterium damselae. As to conditions: other: apparent, 37° C., 20 min, Tris-HCl pH 8.0, pH 2.6. The procedure:
as §1, §2

Setting [8] is: GalNAcα2AA 1.0 mM, NaOAc-HOAc pH 5.0, 20° C.
[9] abbreviates: LacβMU 1.0 mM, Tris-HCl pH 8.0, 20° C.

The term Km denotes the substrate concentration at which the rate is half of its maximum. Usually kcat stands for the maximal rate divided by the concentration of active sites.

As to `CC(=O)N[C@H]1[C@H]([C@H](O)[C@H](O)CO)O[C@](OP(=O)(O)OC[C@H]2O[C@@H](n3ccc(N)nc3=O)[C@H](O)[C@@H]2O)(C(=O)O)C[C@@H]1O` [CMP-Neu5Ac, cytidine 5′-monophosphate N-acetylneuraminic acid], the Km was 3900 ± 400 µM in series [1] (acceptor GalNAcα2AA), 620 µM in series [1] (acceptor LacβMU), 3300 ± 400 µM in series [3] (setting [8]) and 630 µM in series [3] (setting [9]). Moreover, the kcat in series [1] (acceptor GalNAcα2AA) was 0.08 ± 0.0033 s⁻¹; in series [1] (acceptor LacβMU), “(1.4 ± 0.1) × 10^2 min^−1”; in series [2] it was “(2.9 ± 0.3) × 10^2 min^−1”; in series [3] (setting [8]), 0.0983 ± 0.0033 s⁻¹; in series [3] (setting [9]), “(1.3 ± 0.1) × 10^2 min^−1”.

B1: Photobacterium sp. JH-ISH-224 α2-6-sialyltransferase Psp2,6ST(15-501)-His6 A235D mutant, SEQ ID NO: 14 (Photobacterium sp. JT-ISH-224; A235D) (protein)
chain: CNNSEENTQSIIKNDINKTIIDEEYVNLEPINQSNISFTKHSWVQTCGTQQLLTEQNKESISLSVVAPRLDDDEKYCFDFNGVSNKGEKYITKVTLNVVAPSLEVYVDHASLPTLQQLMDIIKSEEENPTAQRYIAWGRIVPTDEQMKELNITSFALINNHTPADLVQEIVKQAQTKHRLNVKLSSNTAHSFDNLVPILKELNSFNNVTVTNIDLYDDGSDEYVNLYNWRDTLNKTDNLKIGKDYLEDVINGINEDTSNTGTSSVYNWQKLYPANYHFLRKDYLTLEPSLHELRDYIGDSLKQMQWDGFKKFNSKQQELFLSIVNFDKQKLQNEYNSSNLPNFVFTGTTVWAGNHEREYYAKQQINVINNAINESSPHYLGNSYDLFFKGHPGGGIINTLIMQNYPSMVDIPSKISFEVLMMTDMLPDAVAGIASSLYFTIPAEKIKFIVFTSTETITDRETALRSPLVQVMIKLGIVKEENVLFWA
B1: in series [4], the kcat is 4.17 ± 0.333 s⁻¹.

B2: A235D: Psp26ST(15-501)-His6 with A235D point mutation; SEQ ID NO: 14 (protein)
chain: CNNSEENTQSIIKNDINKTIIDEEYVNLEPINQSNISFTKHSWVQTCGTQQLLTEQNKESISLSVVAPRLDDDEKYCFDFNGVSNKGEKYITKVTLNVVAPSLEVYVDHASLPTLQQLMDIIKSEEENPTAQRYIAWGRIVPTDEQMKELNITSFALINNHTPADLVQEIVKQAQTKHRLNVKLSSNTAHSFDNLVPILKELNSFNNVTVTNIDLYDDGSDEYVNLYNWRDTLNKTDNLKIGKDYLEDVINGINEDTSNTGTSSVYNWQKLYPANYHFLRKDYLTLEPSLHELRDYIGDSLKQMQWDGFKKFNSKQQELFLSIVNFDKQKLQNEYNSSNLPNFVFTGTTVWAGNHEREYYAKQQINVINNAINESSPHYLGNSYDLFFKGHPGGGIINTLIMQNYPSMVDIPSKISFEVLMMTDMLPDAVAGIASSLYFTIPAEKIKFIVFTSTETITDRETALRSPLVQVMIKLGIVKEENVLFWA
modifications: C-terminal His6; Synthetic Psp26ST(15-501) A235D
B2: in series [5], the “donor hydrolysis activity compared to wild-type” value was “decreased donor hydrolysis activity”. Further, the “sialylation activity compared to wild-type” value in series [6] is listed as “maintaining most of the sialylation activity”.

B3: Photobacterium damselae α2-6-sialyltransferase His6-Pd2,6ST(16-497) (Photobacterium damselae) (protein)
chain: CNSDNTSLKETVSSNSADVVETETYQLTPIDAPSSFLSHSWEQTCGTPILNESDKQAISFDFVAPELKQDEKYCFTFKGITGDHRYITNTTLTVVAPTLEVYIDHASLPSLQQLIHIIQAKDEYPSNQRFVSWKRVTVDADNANKLNIHTYPLKGNNTSPEMVAAIDEYAQSKNRLNIEFYTNTAHVFNNLPPIIQPLYNNEKVKISHISLYDDGSSEYVSLYQWKDTPNKIETLEGEVSLLANYLAGTSPDAPKGMGNRYNWHKLYDTDYYFLREDYLDVEANLHDLRDYLGSSAKQMPWDEFAKLSDSQQTLFLDIVGFDKEQLQQQYSQSPLPNFIFTGTTTWAGGETKEYYAQQQVNVINNAINETSPYYLGKDYDLFFKGHPAGGVINDIILGSFPDMINIPAKISFEVLMMTDMLPDTVAGIASSLYFTIPADKVNFIVFTSSDTITDREEALKSPLVQVMLTLGIVKEKDVLFWA
For the molecule B3, the kcat in series [7] turned out to be 3.67 ± 0.333 s⁻¹.
